In US20260102407A1, “TREATMENT METHODS” (priority 2020, published 2026):

Tests used:
[1] = test system: rabbits; assay: GLP ocular tolerance study, single intravitreal injection; format: in vivo, rabbit; conditions: single intravitreal injection 10 μg/50 μl, after 28 days
[2] = test system: THP-1 transendothelial migration; assay: Monocyte-transendothelial migration assay toward MCP-1; format: cell-based, human; conditions: HMEC; 20 ng/ml IL-1β; 24 h
Protocol: Monocyte-transendothelial migration assay. Millicell 8 μm polycarbonated culture plate inserts (Millipore) were coated with 0.1% porcine gelatin type A (Sigma) and then placed into 24-well plates. HMEC (5×10^4 cells/well) were seeded onto the insert and allowed to adhere overnight. Cells were then serum deprived for 24 h and treated with various compound treatments for 1 h. IL-1β (20 ng/ml) was added to stimulate the cells for 4 h and 500 μl of serum-free medium was added to the bottom of the 24-well plate along with the compound. THP-1 (5×10^5 cells in 100 μl) were added into the insert and 100 ng/ml MCP-1 (Sigma) was added to the lower well. After 24 h, the number of cells that had migrated though the endothelial layer was assessed by counting 100 μl of the suspension in the lower chamber using a Coulter cell counter (Beckman Coulter).

[3] = test system: VCAM-1; assay: Immunohistochemical staining of rat retina, VCAM-1; format: in vivo; conditions: lasered rat retinas
Text: Rat choroidal laser injury model. Male Brown Norway pigmented rats (8-14 week-old) were anesthetized by an intramuscular injection of Rompun® (xylazine)/Imalgene® (ketamine). Pupils were dilated by instillation of one drop of 0.5% tropicamide before laser burn. Six burns were created in both eyes on Day 0 by applying 170 mW of 532 nm laser light (Viridis laser, Quantel, France) on 75 μm spots around the optic nerve, between the main retinal vessel branches, for 0.1s, through the slit lamp and contact lens. Production of a bubble at the time of laser application confirmed the rupture of Bruch's membrane. […] After anaesthesia, 10% sodium fluorescein (250 μl/100 g body weight) was injected subcutaneously, and ocular fluorescence was recorded 10 min after dye injection. Fluorescein leakage was evaluated on Days 14 and 21 in the angiograms by two examiners masked to the study groups and graded for fluorescein intensity as follows: score 0: no leakage; 1: slightly stained; 2: moderately stained; 3: strongly stained.
Immunohistochemical staining of rat retina. […] IOD of positive staining (red chromogen) was assessed for CD31, VEGF-A165, pERK, FosB and VCAM-1 using Image-Pro Plus software (Cybernetics, Bethesda, MD). IOD in IPL and INL was quantified for CD31; OPL to OS for VEGF-A165; INL to ONL for pERK; GCL to OS for FosB; OLM for VCAM-1, using Image-Pro Plus. […]

`CCOC(=O)Nc1ccc2c(c1)C(=O)N(CC)c1ccccc1O2` [BT2, (10-ethyl-11-oxo-10,11-dihydro-dibenzo[b,f][1,4]oxazepin-2-yl)-carbamic acid ethyl ester] was tested, and the ocular tolerance [1] was “well tolerated macroscopically and histologically”, the “transendothelial migration of THP-1 monocytes toward MCP-1” value [2] was “inhibits the transendothelial migration” and the “inducible VCAM-1 expression in the OLM” value [3] was “reduced inducible VCAM-1 expression”.
